Data from patent publication US6448442B1, “Contrast media” (Amersham Health AS, priority 1999, dated 2002).
Values joined by “and” are separate entries in the source; they are usually repeats but may differ in a detail not shown here. Equal values may be shown once.

Assay: Viscosity in aqueous solution at 20° C. (Example 82, Tables 1 and 2)
Format: physicochemical
Conditions: for Viscosity 350 mgI/ml (CALCULATED): calculated for 350 mgI/ml; for Viscosity at 400 mgI/ml (CALCULATED): calculated for 400 mgI/ml
Description: The viscosities in aqueous solution at 20° C. for some further compounds described above were determined and are listed in Table 2. […]

O=C(CO)Nc1c(I)c(CO)c(I)c(N(CCO)C(=O)CO)c1I [Example 5, N,N′-Bis(hydroxyacetyl)-N-(2-hydroxyethyl)-3,5-diamino-2,4,6-triiodobenzylalcohol]
Viscosity 350 mgI/ml (CALCULATED): 6.9 mPas | Viscosity at 400 mgI/ml (CALCULATED): 10.0 mPas | Viscosity 20° C. (concentration 435 mgI/ml): 13 mPas | Viscosity 20° C. (concentration 512 mgI/ml): 29 mPas | Viscosity (iodine concentration 435 mgI/mL): 13 mPas

O=C(CO)Nc1c(I)c(CO)c(I)c(N(CC(O)CO)C(=O)CO)c1I (stereo not drawn) [Example 7, N,N′-Bis(hydroxyacetyl)-N-(2,3-dihydroxypropyl)-3,5-diamino-2,4,6-triiodobenzylalcohol]
Viscosity at 400 mgI/ml (CALCULATED): 11.5 mPas | Viscosity 20° C. (concentration 361 mgI/ml): 8 mPas | Viscosity (iodine concentration 361 mgI/mL): 8.0 mPas

CC(O)C(=O)Nc1c(I)c(CO)c(I)c(NC(=O)C(C)O)c1I (stereo not drawn) [Example 8, N,N′-Bis(2-hydroxypropionyl)-3,5-diamino-2,4,6-triiodobenzylalcohol]
Viscosity at 400 mgI/ml (CALCULATED): 11.0 mPas | Viscosity 20° C. (concentration 370 mgI/ml): 8.3 mPas | Viscosity (iodine concentration 370 mgI/mL): 8.3 mPas

CC(O)C(=O)Nc1c(I)c(CO)c(I)c(N(CC(O)CO)C(=O)C(C)O)c1I (stereo not drawn) [Example 11, N,N′-Bis(2-hydroxypropionyl)-N-(2,3-dihydroxypropyl)-3,5-diamino-2,4,6-triiodobenzylalcohol]
Viscosity at 400 mgI/ml (CALCULATED): 15 mPas | Viscosity 20° C. (concentration 409 mgI/ml): 17 mPas | Viscosity (iodine concentration 407 mgI/mL): 16 mPas

O=C(Nc1c(I)c(CO)c(I)c(N(CCO)C(=O)C(O)CO)c1I)C(O)CO (stereo not drawn) [Example 13, N,N′-Bis(2,3-dihydroxypropionyl)-N-(2-hydroxyethyl)-3,5-diamino-2,4,6-triiodobenzylalcohol]
Viscosity at 400 mgI/ml (CALCULATED): 12.2 mPas | Viscosity 20° C. (concentration 398 mgI/ml): 12 mPas | Viscosity (iodine concentration 398 mgI/mL): 12 mPas

O=C(C(O)CO)N(CCO)c1c(I)c(CO)c(I)c(N(CCO)C(=O)C(O)CO)c1I (stereo not drawn) [Example 14, N,N′-Bis(2,3-dihydroxypropionyl)-N,N-bis(2-hydroxyethyl)-3,5-diamino-2,4,6-triiodobenzylalcohol]
Viscosity at 400 mgI/ml (CALCULATED): 15.8 mPas | Viscosity 20° C. (concentration 373 mgI/ml): 12.0 mPas | Viscosity (iodine concentration 373 mgI/mL): 12 mPas

O=C(Nc1c(I)c(CO)c(I)c(N(CC(O)CO)C(=O)C(O)CO)c1I)C(O)CO (stereo not drawn) [Example 15, N,N′-Bis(2,3-dihydroxypropionyl)-N-(2,3-dihydroxypropyl)-3,5-diamino-2,4,6-triiodobenzylalcohol]
Viscosity at 400 mgI/ml (CALCULATED): 17.8 mPas and 14.9 mPas | Viscosity 20° C. (concentration 291 mgI/ml): 5.4 mPas | Viscosity 20° C. (concentration 384 mgI/ml): 15 mPas | Viscosity 20° C. (concentration 394 mgI/ml): 14 mPas | Viscosity (iodine concentration 348 mgI/mL): 7.8 mPas | Viscosity (iodine concentration 394 mgI/mL): 14 mPas | Viscosity (iodine concentration 446 mgI/mL): 22 mPas | Viscosity (iodine concentration 537 mgI/mL): 75 mPas

O=C(NCC(O)CO)c1c(I)c(CO)c(I)c(N(CC(O)CO)C(=O)CO)c1I (stereo not drawn) [Example 26, 5-[N′-(2,3-Dihydroxypropyl)-hydroxyacetamido]-3-hydroxymethyl-N-(2,3-dihydroxypropyl)-2,4,6-triiodobenzamide]
Viscosity 350 mgI/ml (CALCULATED): 9.4 mPas | Viscosity at 400 mgI/ml (CALCULATED): 15.1 mPas | Viscosity 20° C. (concentration 385 mgI/ml): 13 mPas | Viscosity (iodine concentration 385 mgI/mL): 13 mPas

CC(O)C(=O)Nc1c(I)c(CO)c(I)c(C(=O)NCC(O)CO)c1I (stereo not drawn) [Example 27, 5-(2-Hydroxypropionylamino)-3-hydroxymethyl-N-(2,3-dihydroxypropyl)-2,4,6-triiodobenzamide]
Viscosity at 400 mgI/ml (CALCULATED): 12.5 mPas | Viscosity 20° C. (concentration 412 mgI/ml): 14 mPas | Viscosity (iodine concentration 412 mgI/mL): 14 mPas

CC(O)C(=O)N(CCO)c1c(I)c(CO)c(I)c(C(=O)NCC(O)CO)c1I (stereo not drawn) [Example 28, 5-[N′-(2-Hydroxyethyl)-2-hydroxypropionylamino]-3-hydroxymethyl-N-(2,3-dihydroxypropyl)-2,4,6-triiodobenzamide]
Viscosity 350 mgI/ml (CALCULATED): 9.2 mPas | Viscosity at 400 mgI/ml (CALCULATED): 14.6 mPas | Viscosity 20° C. (concentration 404 mgI/ml): 15 mPas | Viscosity (iodine concentration 404 mgI/mL): 15 mPas
